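Grown in 96-well plates, cells were treated for 48 hours with each compound at five concentrations. Insufficient inhibition: endpoint recorded as highest concentration tested. Abbreviation: GI50, concentration required for 50% inhibition of growth.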 Activity calls are given as the source filed them. No stated cut-off is given here; in the data, active = GI50 up to about 1.1 µM and inactive = higher.
Legend:
Experiment in all cases: NCI tumour cell line growth inhibition, 48 h
ACHN = system: ACHN
HCT-116 = system: HCT-116
KM12 = system: KM12
LOX IMVI = system: LOX IMVI
M14 = system: M14
Malme-3M = system: Malme-3M
SF-268 = system: SF-268
SF-539 = system: SF-539
SK-MEL-5 = system: SK-MEL-5
SNB-75 = system: SNB-75
UACC-257 = system: UACC-257
COLO 205 = system: COLO 205
EKVX = system: EKVX
NCI-H23 = system: NCI-H23
SR = system: SR
SW-620 = system: SW-620

Measured: GI50

O=C(NN1C(=O)C(Cl)C1c1ccccc1Cl)c1ccccc1O (stereo unspecified)
inactive: ACHN > 100 µM | HCT-116 > 100 µM | KM12 > 100 µM | LOX IMVI > 100 µM | M14 > 100 µM | Malme-3M > 100 µM | SF-268 71.1 µM | SF-539 > 100 µM | SK-MEL-5 > 100 µM | SNB-75 > 100 µM | UACC-257 > 100 µM

CCC(=O)C(C(=O)CC)c1c(OC(=O)c2ccccc2)ccc(O)c1C(=O)OC
inactive: ACHN > 100 µM | COLO 205 > 100 µM | EKVX > 100 µM | HCT-116 > 100 µM | KM12 > 100 µM | LOX IMVI > 100 µM | M14 > 100 µM | NCI-H23 > 100 µM | SF-268 > 100 µM | SF-539 > 100 µM | SK-MEL-5 > 100 µM | SNB-75 90.8 µM | SR 89.9 µM | SW-620 > 100 µM | UACC-257 > 100 µM

CCOP(=O)(OCC)C1CCCOC1=O (stereo unspecified)
inactive: ACHN > 100 µM | COLO 205 > 100 µM | EKVX > 100 µM | HCT-116 > 100 µM | KM12 > 100 µM | LOX IMVI > 100 µM | M14 > 100 µM | Malme-3M > 100 µM | NCI-H23 > 100 µM | SF-268 > 100 µM | SF-539 > 100 µM | SK-MEL-5 > 100 µM | SNB-75 > 100 µM | SW-620 > 100 µM | UACC-257 > 100 µM

COc1cc(-c2cc(=O)c3ccccc3o2)ccc1N
inactive: ACHN 47.3 µM | COLO 205 69.3 µM | EKVX 12.8 µM | HCT-116 54.3 µM | KM12 39.3 µM | LOX IMVI 51.1 µM | M14 > 100 µM | Malme-3M > 100 µM | NCI-H23 33.8 µM | SF-268 26.8 µM | SF-539 30.8 µM | SK-MEL-5 41.1 µM | SNB-75 19.7 µM | SW-620 92.7 µM | UACC-257 > 100 µM

CO/N=C(/C(=O)Nc1c[n+](CC(=O)[O-])cs1)c1csc(N)n1
inactive: ACHN > 100 µM | COLO 205 > 100 µM | EKVX > 100 µM | HCT-116 > 100 µM | KM12 > 100 µM | LOX IMVI > 100 µM | M14 > 100 µM | Malme-3M > 100 µM | NCI-H23 > 100 µM | SF-268 > 100 µM | SF-539 > 100 µM | SK-MEL-5 > 100 µM | SW-620 > 100 µM | UACC-257 > 100 µM

COc1ccc(NC(=O)CCc2cc(-c3ccc(O)c(OC)c3)nc(NC#N)n2)cc1
inactive: ACHN > 100 µM | COLO 205 > 100 µM | EKVX > 100 µM | HCT-116 > 100 µM | KM12 > 100 µM | LOX IMVI > 100 µM | M14 > 100 µM | Malme-3M > 100 µM | NCI-H23 > 100 µM | SF-268 > 100 µM | SF-539 > 100 µM | SR > 100 µM | SW-620 > 100 µM | UACC-257 > 100 µM

Clc1ccc(-c2nnc(-c3nn(-c4ccccc4)c4nc5ccccc5nc34)o2)cc1
inactive: ACHN > 100 µM | COLO 205 > 100 µM | EKVX > 100 µM | HCT-116 35.9 µM | KM12 > 100 µM | LOX IMVI > 100 µM | M14 48.3 µM | Malme-3M 84.3 µM | NCI-H23 42.4 µM | SF-268 69.3 µM | SF-539 > 100 µM | SK-MEL-5 12.9 µM | SNB-75 95.1 µM | SW-620 62.4 µM | UACC-257 67.5 µM

CC(=O)n1c(=O)c2cc3c(=O)n(-c4cccc(C#N)c4)c(=O)c3cc2c1=O
inactive: ACHN > 100 µM | COLO 205 > 100 µM | EKVX > 100 µM | HCT-116 > 100 µM | KM12 > 100 µM | LOX IMVI > 100 µM | M14 > 100 µM | Malme-3M > 100 µM | NCI-H23 > 100 µM | SF-268 > 100 µM | SF-539 > 100 µM | SK-MEL-5 > 100 µM | SNB-75 23.7 µM | SW-620 > 100 µM | UACC-257 > 100 µM

CSc1nc2nccnc2c(=O)[nH]1
inactive: ACHN > 100 µM | COLO 205 > 100 µM | EKVX > 100 µM | HCT-116 > 100 µM | LOX IMVI > 100 µM | M14 > 100 µM | Malme-3M > 100 µM | NCI-H23 > 100 µM | SF-268 > 100 µM | SK-MEL-5 > 100 µM | SNB-75 > 100 µM | SR > 100 µM | SW-620 > 100 µM | UACC-257 > 100 µM

COc1cc(-c2nn3c(=O)n(-c4ccc(Cl)cc4)c(=O)nc3s2)cc(OC)c1OC
inactive: ACHN 16.3 µM | COLO 205 > 100 µM | EKVX > 86.5 µM | HCT-116 33.7 µM | KM12 > 65.8 µM | LOX IMVI 18.5 µM | M14 39.2 µM | Malme-3M 65.9 µM | NCI-H23 37.6 µM | SF-268 > 50 µM | SF-539 17 µM | SK-MEL-5 > 52.4 µM | SNB-75 8.24 µM | SW-620 > 100 µM | UACC-257 > 58.7 µM

Cc1cc(C)n2c(-c3ccccc3)c(C)cc2n1
inactive: ACHN 95.7 µM | COLO 205 43.5 µM | EKVX 64 µM | HCT-116 67.8 µM | KM12 60.8 µM | LOX IMVI 65 µM | M14 43.5 µM | Malme-3M 49.4 µM | NCI-H23 41.1 µM | SF-268 > 100 µM | SF-539 24.3 µM | SK-MEL-5 26.9 µM | SNB-75 23.1 µM | SW-620 34 µM | UACC-257 > 100 µM

Cc1nn(-c2ccccc2)c(-c2ccccc2[N+](=O)[O-])c1CC#N
inactive: ACHN > 100 µM | COLO 205 > 100 µM | EKVX > 100 µM | KM12 > 100 µM | LOX IMVI > 100 µM | M14 > 100 µM | Malme-3M 29.4 µM | NCI-H23 87.7 µM | SF-268 > 100 µM | SF-539 > 100 µM | SK-MEL-5 7.87 µM | SNB-75 > 100 µM | SW-620 > 10 µM | UACC-257 > 100 µM

CC1CCC2(NC1)OC1CC3[C@@H]4CC=C5C=CCC[C@]5(C)C4CC[C@]3(C)C1C2C (stereo partly specified)
inactive: ACHN 22.9 µM | COLO 205 17.3 µM | EKVX 19.6 µM | HCT-116 17.7 µM | KM12 18.9 µM | LOX IMVI 17.9 µM | M14 22.4 µM | Malme-3M 18.5 µM | NCI-H23 32.3 µM | SF-268 28.6 µM | SF-539 19.6 µM | SK-MEL-5 15.3 µM | SNB-75 15.5 µM | SW-620 19.7 µM | UACC-257 22.5 µM

COc1ccc(-c2cc(=O)c3c(O)cccc3o2)c(OC)c1OC
inactive: ACHN 61 µM | COLO 205 > 100 µM | HCT-116 38.7 µM | KM12 40.6 µM | LOX IMVI 55.2 µM | M14 > 100 µM | Malme-3M > 100 µM | NCI-H23 > 100 µM | SF-268 > 100 µM | SF-539 20.6 µM | SK-MEL-5 24.7 µM | SNB-75 11.9 µM | SW-620 22.4 µM | UACC-257 > 100 µM

Source: ChEMBL document CHEMBL1201862, “PubChem BioAssay data set” (2004)
